What was measured:
[1] = tested on: influenza viruses A (H1N1) isolates, H275Y on N1 NA protein; design: species or system influenza virus A (H1N1)
[2] = target: NA of oseltamivir-resistant influenza viruses A (H1N1) (ORVs) with H275Y (Influenza A virus (H1N1), UniProt E3JK96); assay type: biochemical

SMILES	susceptibility to oseltamivir (in words) [1]	sensitivity of ORVs to the drug (in words) [2]
CCOC(=O)C1=C[C@@H](OC(CC)CC)[C@H](NC(C)=O)[C@@H](N)C1 [Oseltamivir, oseltamivir]	resistant	
CC(=O)N[C@H]1[C@H]([C@H](O)[C@H](O)CO)OC(C(=O)O)=C[C@@H]1N=C(N)N [Zanamivir, zanamivir]		sensitive

Reference: article PMC3086245 (Emerging Infectious Diseases, 2010)
